According to patent US20090169642A1, “RECONSTRUCTED LIVING ADIPOSE TISSUE” (priority 2005, published 2009):

Key:
[1] = test system: tissue-engineered adipose sheets; assay: Lipolysis measurements (glycerol release from adipose tissue sheets); format: cell-based, human
Experimental: Lipolysis measurements. The lipolytic cell response of the adipose tissue sheets cultured for 27 days was assessed by measuring the amount of glycerol released into the incubation medium after treatment with 1 μM isoproterenol or its appropriate vehicle control. The tissues were previously incubated in serum-free medium for a minimum of 2 days to avoid interference with serum factors, and rinsed with serum-free medium before the assay. After 1, 2, 4 and 24 hours, the conditioned medium was immediately tested for the release of glycerol using an enzyme-coupled glycerol assay based on a colorimetric quantification (Sigma).

[2] = test system: adipose-derived stromal cells; assay: Quantification of adipose differentiation by Oil Red O staining; format: cell-based, human; details: fresh stromal cells not submitted to freezing, medium with vs without ascorbic acid
Experimental: Quantification of adipose differentiation. After 14 days of differentiation, independently of the time spent in culture before the time of adipogenic induction, Oil Red 0 (ORO) staining of the cytoplasmic neutral lipids of the droplets were performed according to a modification from [Kuri-Harcuch W et al. 1978; 75(12):6107-9, Ramirez-Zacarias J L et al. Histochemistry 1992; 97(6):493-7]. Briefly, cultures were rinsed, fixed with 10% buffered formalin, stained with 0.3% ORO in isopropanol and extracted with 4% Nonidet/isopropanol for quantification at 520 nm using a SpectraMax Plus™ spectrometer (Molecular Device) with SoftmaxPro™ Ver 4.7.1.

## CC(C)NCC(O)c1ccc(O)c(O)c1 (stereo not drawn) [Isoproterenol]
[1]; 1 μm isoproterenol, LA adipose tissue sheet cells in P3, adipocytes differentiated for 20 days, relative to basal levels
  time of peak in glycerol release post-stimulation: 2 h
[1]; isoproterenol 1 μM, adipose constructs from lipoaspirated fat in P3, 20 days of in vitro differentiation
  lipolytic activation (hydrolysis of triglycerides into fatty acids and glycerol): induced the hydrolysis of triglycerides

## O=C1O[C@H]([C@@H](O)CO)C(O)=C1O [ascorbic acid]
[2]
  adipocyte differentiation (ORO staining): can promote adipocyte differentiation
